Test results from patent publication US9763910B1, “Combination therapy for treating cancer” (Huanggang Normal University, priority 2016, dated 2017).

Key:
[1] = format: in vivo, mouse
Procedure: BALB/c nude mice were divided into two groups, with 8 mice in each group. […] Then, liver, spleen, and kidney weights of the mice in each group were measured and blood was collected. Following at RT for 1 h, the blood was centrifuged at 3000 rpm for 10 min at 4° C. to collect serum before stored at −80° C. Clinical chemistry measurements, e.g., levels of AST, ALT, triglyceride (TG), and total cholesterol (TC), were measured by an automatic biochemical analyzer.

[2] = test system: CL1-5 human lung cancer cells engrafted in BALB/c nude mice; assay: Tumor growth in CL1-5 cell-engrafted BALB/c nude mice; details: CL1-5 engrafted nude mice
Procedure: The study was carried out as follows: inoculating BALB/c mice with of the CL1-5 human lung cancer cells; dividing the mice into 4 groups 7 days after inoculation with 8 mice in each group and treating them once every two days for 14 days respectively with (i) 0.4 ml of 10% DMSO, (ii) 0.4 ml of 10% DMSO containing 25 μmol of docetaxel, (iii) 0.4 ml of 10% DMSO containing 15.5 μmol of 5-demethylnobiletin, and (iv) 0.4 ml of 10% DMSO containing 25 μmol of docetaxel and 15.5 μmol of 5-demethylnobiletin; growing mice without any treatment for another 14 days; measuring tumor sizes after animal sacrificing.
The experimental BALB/c nude mice were divided into 4 groups, with 8 in each group. Each mouse was inoculated with 0.1 ml of the CL1-5 human lung cancer cells at a density of 10^6 cells/ml. 7 days after of the inoculation, the 4 groups of mice were infused respectively with (i) 27 μl of 10% DMSO; (ii) 25 μmol of docetaxel in a 10% DMSO solution (iii) 15.5 μmol of 5-demethylnobiletin in a 10% DMSO solution; and (iv) 25 μmol of docetaxel and 15.5 μmol of 5-demethylnobiletin in a 10% DMSO solution at a frequency of once every 2 days for 14 days. […]
[1−(fa)2], (fa)1 and (fa)2 are inhibition rates of drug1 and drug2, respectively, and (fa)1,2 is the calculated inhibition rate of combining drug1 and drug2, which is also a theoretical additive effect. […]

CL1-5 lung cancer cells = assay: Growth inhibition of CL1-5 lung cancer cells (cell viability by absorbance); details: Homo sapiens, CL1-5, read-out: IC50 rate of docetaxel for the CL1-5 cells
Procedure: The CL1-5 cells were cultured in RPMI 1640 medium containing 100 U/ml penicillin, 100 μg/ml streptomycin, and 10% fetal bovine serum at a temperature of 37° C. and with carbon dioxide at a concentration of 5%. The cultured cells were divided into 8 treatment groups. 4 groups were treated only with docetaxel at different concentrations: 3.125, 6.25, 12.5, and 25.0 nmol of docetaxel per liter of the medium in 100 μl of 10% DMSO solution.

[3] = 15.5 μmol once every 2 days for 14 days, sacrificed after another 14 days
[4] = serum, 15.5 μmol once every 2 days for 14 days

| Kidney weight [1, 3] | Liver weight [1, 3] | Spleen weight [1, 3] | difference between control group and treatment group in organ weights and clinical chemistry ([1]; Table 1 parameters) | GOT [1, 4] | GPT [1, 4] | TC [1, 4] | TG [1, 4] | Structure (SMILES) | experimental inhibition rate (fa) of tumor growth [2] | IC50 (CL1-5 lung cancer cells) |
| --- | --- | --- | --- | --- | --- | --- | --- | --- | --- | --- |
| 0.90 ± 0.06 g | 3.93 ± 0.28 g | 0.21 ± 0.04 g | no significant difference | 91.2 ± 9.8 Unit/L | 22.8 ± 5.2 Unit/L | 77.1 ± 4.9 mg/dL | 109.5 ± 36.9 mg/dL | COc1ccc(-c2cc(=O)c3c(O)c(OC)c(OC)c(OC)c3o2)cc1OC [5-Hydroxy-6,7,8,3′,4′-pentamethoxyflavone] | 38% |  |
|  |  |  |  |  |  |  |  | CC(=O)O[C@@]12CO[C@@H]1C[C@H](O)[C@@]1(C)C(=O)[C@H](O)C3=C(C)[C@@H](OC(=O)[C@H](O)[C@@H](NC(=O)OC(C)(C)C)c4ccccc4)C[C@@](O)([C@@H](OC(=O)c4ccccc4)[C@H]21)C3(C)C [docetaxel, 1,7β,10β-trihydroxy-9-oxo-5β,20-epoxytax-11-ene-2α,4,13α-triyl 4-acetate 2-benzoate 13-{(2R,3S)-3-[(tert-butoxycarbonyl)amino]-2-hydroxy-3-phenylpropanoate}, reference compound] | 47.6% | 28.4 nM |
